PubChem BioAssay (NCI)
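All cell lines were grown in 96-well plates and treated with compound for 48 hours. Abbreviation: GI50, concentration required for 50% inhibition of growth. TGI: total growth inhibition.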

Key:
Test in all cases: NCI-60 cell line screen, 48 h
M14 melanoma = test system: M14 melanoma
UACC-257 melanoma = test system: UACC-257 melanoma
LOX IMVI melanoma = test system: LOX IMVI melanoma
HCT-116 colon = test system: HCT-116 colon
OVCAR-3 ovarian = test system: OVCAR-3 ovarian
A549 NSCLC = test system: A549 NSCLC
NCI-H226 lung = test system: NCI-H226 lung
SK-MEL-2 melanoma = test system: SK-MEL-2 melanoma
RXF 393 renal = test system: RXF 393 renal
MOLT-4 leukemia = test system: MOLT-4 leukemia

Compound | TGI (M14 melanoma) [µM] | TGI (UACC-257 melanoma) [µM] | TGI (LOX IMVI melanoma) [µM] | TGI (HCT-116 colon) [µM] | TGI (OVCAR-3 ovarian) [µM] | TGI (A549 NSCLC) [µM] | TGI (NCI-H226 lung) [µM] | TGI (SK-MEL-2 melanoma) [µM] | TGI (RXF 393 renal) [µM] | TGI (MOLT-4 leukemia) [µM] | GI50 (SK-MEL-2 melanoma) [µM] | GI50 (RXF 393 renal) [µM] | GI50 (MOLT-4 leukemia) [µM] | GI50 (M14 melanoma) [µM] | GI50 (OVCAR-3 ovarian) [µM] | GI50 (A549 NSCLC) [µM] | GI50 (UACC-257 melanoma) [µM] | GI50 (HCT-116 colon) [µM] | GI50 (NCI-H226 lung) [µM]
Cc1ccc2nc(-c3ccc(N4C(=O)C(Cl)C4c4ccc(Cl)cc4)cc3)sc2c1 (stereo unspecified) | 57 | 47.7 | 18.7 | 59.4 | 40.1 | 36.9 | 36 | – | – | – | – | – | – | – | – | – | – | – | –
CCOC(=O)CC(=O)Nc1cccc2[nH]cnc12 | > 100 | > 100 | – | > 100 | > 100 | > 100 | > 100 | > 100 | > 100 | > 100 | – | – | – | – | – | – | – | – | –
CC(C)C(/C=C/c1ccc(Cl)c(Cl)c1)=N\NC(=O)N/N=C(/C=C/c1ccc(Cl)c(Cl)c1)C(C)C | > 100 | > 100 | > 100 | – | > 100 | – | > 100 | – | – | > 100 | – | – | – | – | – | – | – | – | –
CCNC(=O)c1c(O)c2ccccc2[nH]c1=O | – | > 100 | > 100 | > 100 | > 100 | > 100 | > 100 | – | > 100 | > 100 | – | – | – | – | – | – | – | – | –
CCOC(=O)CNc1nc(=O)c2c(=O)oc(Cl)cc2o1 | 49.1 | 38.4 | 22.3 | 24.4 | 25.5 | 40.6 | > 100 | 44.5 | – | 29.8 | – | – | – | – | – | – | – | – | –
Cc1noc(NC2=CC(=O)C(=O)c3ccccc32)c1C | > 100 | 64 | > 100 | > 100 | > 100 | 55.3 | > 100 | 5.8 | – | 47.4 | – | – | – | – | – | – | – | – | –
Cc1csc(/N=C\c2c(O)c3ccccc3oc2=O)n1 | > 100 | > 100 | > 100 | > 100 | > 100 | > 100 | > 100 | 49.5 | – | > 100 | – | – | – | – | – | – | – | – | –
Cc1ccc2oc(=O)c(C(=O)Nc3nc(C45CC6CC(CC(C6)C4)C5)cs3)cc2c1 | – | > 100 | > 100 | > 100 | > 100 | > 100 | > 100 | – | > 100 | > 100 | – | – | – | – | – | – | – | – | –
CCOP(=O)(OCC)C(N)c1ccc(Cl)cc1 (stereo unspecified) | > 100 | > 100 | > 100 | > 100 | – | > 100 | – | > 100 | – | > 100 | – | – | – | – | – | – | – | – | –
C=C1C(=O)O[C@H]2[C@@H](O)[C@H](C)CCC[C@]3(C)O[C@H]3CC[C@@]3(C)O[C@@H]3C[C@@H]12 | 12.4 | – | – | 6.52 | 10.6 | 18.3 | 14.5 | 16.6 | 7.13 | 7.15 | – | – | – | – | – | – | – | – | –
COC(=O)[C@H](Cc1c[nH]c2ccccc12)NC(=O)c1ccc(CNC(=O)/C=C/c2cccc(Oc3ccccc3)c2)cc1 | > 100 | 40.3 | – | > 100 | > 100 | > 100 | > 100 | 82.8 | 81.6 | > 100 | – | – | – | – | – | – | – | – | –
COc1cc2c(=O)cnoc2cc1O | > 100 | > 100 | – | – | > 100 | > 100 | > 100 | > 100 | > 100 | > 100 | – | – | – | – | – | – | – | – | –
C=CCO[C@]1(CC=C)C(=O)C(=O)OC1C1COC(C)(C)O1 (stereo partly specified) | – | > 100 | 31.5 | 74.7 | > 100 | > 100 | > 100 | – | 40.8 | 93.8 | – | – | – | – | – | – | – | – | –
CN(/N=C/c1ccnc2ccccc12)c1ccc(Cl)cc1[N+](=O)[O-] | > 100 | > 100 | – | > 100 | > 100 | > 100 | > 100 | > 100 | > 100 | > 100 | – | – | – | – | – | – | – | – | –
Cc1ccc(N(CC(=O)Nc2ccc(S(=O)(=O)N3CCC(N4CCCC4)CC3)cc2)S(=O)(=O)c2ccc(Cl)cc2)cc1 | 3.39 | – | – | – | 3.49 | 3.52 | – | 3.92 | 2.78 | 4.98 | 1.95 | 1.16 | 1.87 | 1.71 | 1.77 | 1.78 | – | – | –
Cc1ccc(/C(O)=C/c2nc3ccccc3s/c2=N/CS(=O)(=O)c2ccc(C)cc2)cc1 | > 10 | > 10 | > 10 | > 10 | > 10 | > 10 | – | – | – | > 10 | – | – | – | – | – | – | – | – | –
c1csc(C[N+]23CN4CN(CN(C4)C2)C3)c1 | 32.2 | > 100 | – | > 100 | > 100 | 87 | > 100 | 37.3 | – | 44.6 | – | – | – | – | – | – | – | – | –
Nc1nc(N)c2cc(NCc3ccc(Cl)c(Cl)c3)ccc2n1 | 2.16 | 3.22 | – | 1.58 | 2.24 | 1.82 | 3.14 | 3.37 | 2.34 | – | 1.82 | 1.13 | – | 0.841 | 1.03 | 0.528 | 1.71 | 0.391 | 1.53
O=c1[nH]nc(Cc2ccccc2)n1CCO | > 100 | > 100 | > 100 | > 100 | > 100 | > 100 | > 100 | > 100 | – | > 100 | – | – | – | – | – | – | – | – | –
